Test results: patent publication US9695155B2, “Herbicidal substituted pyrimidinyloxy benzene compounds” (E. I. DU PONT DE NEMOURS AND COMPANY, priority 2013, dated 2017)

How the values were obtained:
wheat, winter = experiment: Test C preemergence; type: in vivo, Triticum aestivum; conditions: Triticum aestivum, pre-emergence, preemergence, read-out: Wheat plant response rating
Procedure, shortened: (§1)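 Whole-plant greenhouse test with surfactant-containing solvent formulation, applied preemergence to sown loam–sand pots or postemergence to 2–18 cm plants. Scored by eye 13 to 15 days on, 0–100 scale.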

oilseed rape = experiment: Test C preemergence; type: in vivo, Brassica napus; conditions: Brassica napus, pre-emergence, preemergence, read-out: Oilseed Rape plant response rating
Procedure, shortened: as §1

galium [1] = experiment: Test C preemergence; type: in vivo, Galium aparine; conditions: Galium, pre-emergence
Procedure, shortened: as §1

johnsongrass = experiment: Test C preemergence; type: in vivo, Sorghum halepense; conditions: Sorghum halepense, pre-emergence, preemergence, read-out: Johnsongrass plant response rating
Procedure, shortened: as §1

barnyardgrass = experiment: Test C preemergence; type: in vivo, Echinochloa crus-galli; conditions: Echinochloa crus-galli, pre-emergence
Procedure, shortened: as §1

galium [2] = experiment: Test A postemergence; type: in vivo, Galium aparine; conditions: 0 to 100 scale where 0 is no effect and 100 is complete control
Procedure, shortened: (§2)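 Visual injury scored 0–100 (100 = complete control) against untreated controls about 10 days after treatment in a greenhouse. Test chemicals, formulated with surfactant in non-phytotoxic solvent, were sprayed on soil preemergence or on 2-10 cm, one- to two-leaf plants postemergence.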

kochia [3] = experiment: Test A preemergence; type: in vivo, Kochia scoparia; conditions: 0 to 100 scale where 0 is no effect and 100 is complete control
Procedure, shortened: as §2

ragweed = experiment: Test C preemergence; type: in vivo, Ambrosia elatior; conditions: Ambrosia artemisiifolia, pre-emergence, preemergence, read-out: Ragweed plant response rating
Procedure, shortened: as §1

lambsquarters = experiment: Test C preemergence; type: in vivo, Chenopodium album; conditions: Chenopodium album, pre-emergence, preemergence, read-out: Lambsquarters plant response rating
Procedure, shortened: as §1

kochia [4] = experiment: Test A postemergence; type: in vivo, Kochia scoparia; conditions: 0 to 100 scale where 0 is no effect and 100 is complete control
Procedure, shortened: as §2

giant foxtail = experiment: Test C preemergence; type: in vivo, Setaria faberii; conditions: Setaria faberi, pre-emergence
Procedure, shortened: as §1

soybean = experiment: Test C preemergence; type: in vivo, Glycine max; conditions: Glycine max, pre-emergence, preemergence, read-out: Soybean plant response rating
Procedure, shortened: as §1

pigweed = experiment: Test C preemergence; type: in vivo, Amaranthus retroflexus; conditions: Amaranthus retroflexus, pre-emergence, preemergence, read-out: Pigweed plant response rating
Procedure, shortened: as §1

waterhemp = experiment: Test C preemergence; type: in vivo, Amaranthus rudis; conditions: Amaranthus tuberculatus, pre-emergence, preemergence, read-out: Waterhemp plant response rating
Procedure, shortened: as §1

Italian ryegrass = experiment: Test A preemergence; type: in vivo, Lolium multiflorum; conditions: 0 to 100 scale where 0 is no effect and 100 is complete control
Procedure, shortened: as §2

blackgrass = experiment: Test C preemergence; type: in vivo, Alopecurus myosuroides; conditions: Alopecurus myosuroides, pre-emergence
Procedure, shortened: as §1

velvetleaf = experiment: Test C preemergence; type: in vivo, Abutilon theophrasti; conditions: Abutilon theophrasti, pre-emergence, preemergence, read-out: Velvetleaf plant response rating
Procedure, shortened: as §1

yellow nutsedge = experiment: Test C preemergence; type: in vivo, Cyperus esculentus; conditions: Cyperus, pre-emergence, preemergence, read-out: Nutsedge, Yellow plant response rating
Procedure, shortened: as §1

[5] = 16 g ai/ha, scale 0 to 100 (0 no effect, 100 complete control)
[6] = 62 g ai/ha, scale 0 (no effect) to 100 (complete control)
[7] = 125 g ai/ha, scale 0 (no effect) to 100 (complete control)

FC(F)c1cn(-c2ccccc2Oc2ncc(Cl)cn2)nn1 [Compound 147, 5-chloro-2-[2-[4-(difluoromethyl)-1H-1,2,3-triazol-1-yl]phenoxy]pyrimidine]
plant injury at 16 g/ha (wheat, winter; [5]): 0%
plant injury at 62 g/ha (wheat, winter; [6]): 0%
plant injury at 125 g/ha (wheat, winter; [7]): 25%
plant injury at 16 g/ha (oilseed rape; [5]): 100%
plant injury at 62 g/ha (oilseed rape; [6]): 100%
plant injury at 125 g/ha (oilseed rape; [7]): 100%
pest or weed control at 16 g/ha (galium [1]; 16 g ai/ha, preemergence, scale 0 to 100 (0 no effect, 100 complete control), read-out: Galium plant response rating): 90%
pest or weed control at 62 g/ha (galium [1]; 62 g ai/ha, preemergence, scale 0 (no effect) to 100 (complete control), read-out: Galium plant response rating): 98%
pest or weed control at 125 g/ha (galium [1]; 125 g ai/ha, preemergence, scale 0 (no effect) to 100 (complete control), read-out: Galium plant response rating): 98%
pest or weed control at 31 g/ha (galium [1]; Preemergence, 31 g ai/ha, scale 0 to 100, 0 no effect, 100 complete control, read-out: Plant response rating, Galium): 98%
pest or weed control at 16 g/ha (johnsongrass; [5]): 10%
pest or weed control at 62 g/ha (johnsongrass; [6]): 80%
pest or weed control at 125 g/ha (johnsongrass; [7]): 90%
pest or weed control at 16 g/ha (barnyardgrass; 16 g ai/ha, preemergence, scale 0 to 100 (0 no effect, 100 complete control), read-out: Barnyardgrass plant response rating): 10%
pest or weed control at 62 g/ha (barnyardgrass; 62 g ai/ha, preemergence, scale 0 (no effect) to 100 (complete control), read-out: Barnyardgrass plant response rating): 90%
pest or weed control at 125 g/ha (barnyardgrass; 125 g ai/ha, preemergence, scale 0 (no effect) to 100 (complete control), read-out: Barnyardgrass plant response rating): 100%
pest or weed control at 31 g/ha (barnyardgrass; Preemergence, 31 g ai/ha, scale 0 to 100, 0 no effect, 100 complete control, read-out: Plant response rating, Barnyardgrass): 80%
Galium plant response rating (galium [2]; 125 g ai/ha): 100
Plant response rating, Galium (galium [2]; 500 g ai/ha): 100
Plant response rating, Kochia (kochia [3]; 125 g ai/ha): 100
Kochia plant response rating (kochia [3]; 500 g ai/ha): 100
pest or weed control at 16 g/ha (ragweed; [5]): 75%
pest or weed control at 62 g/ha (ragweed; [6]): 98%
pest or weed control at 125 g/ha (ragweed; [7]): 100%
pest or weed control at 16 g/ha (lambsquarters; [5]): 100%
pest or weed control at 62 g/ha (lambsquarters; [6]): 100%
pest or weed control at 125 g/ha (lambsquarters; [7]): 100%
Kochia plant response rating (kochia [4]; 125 g ai/ha): 100
Plant response rating, Kochia (kochia [4]; 500 g ai/ha): 100
pest or weed control at 16 g/ha (giant foxtail; 16 g ai/ha, preemergence, scale 0 to 100 (0 no effect, 100 complete control), read-out: Foxtail, Giant plant response rating): 70%
pest or weed control at 62 g/ha (giant foxtail; 62 g ai/ha, preemergence, scale 0 (no effect) to 100 (complete control), read-out: Foxtail, Giant plant response rating): 100%
pest or weed control at 125 g/ha (giant foxtail; 125 g ai/ha, preemergence, scale 0 (no effect) to 100 (complete control), read-out: Foxtail, Giant plant response rating): 100%
pest or weed control at 31 g/ha (giant foxtail; Preemergence, 31 g ai/ha, scale 0 to 100, 0 no effect, 100 complete control, read-out: Plant response rating, Foxtail, Giant): 100%
plant injury at 16 g/ha (soybean; [5]): 85%
plant injury at 62 g/ha (soybean; [6]): 95%
plant injury at 125 g/ha (soybean; [7]): 95%
pest or weed control at 16 g/ha (pigweed; [5]): 100%
pest or weed control at 62 g/ha (pigweed; [6]): 100%
pest or weed control at 125 g/ha (pigweed; [7]): 100%
pest or weed control at 16 g/ha (waterhemp; [5]): 100%
pest or weed control at 62 g/ha (waterhemp; [6]): 100%
pest or weed control at 125 g/ha (waterhemp; [7]): 100%
Plant response rating, Ryegrass, Italian (Italian ryegrass; 125 g ai/ha): 10
Ryegrass, Italian plant response rating (Italian ryegrass; 500 g ai/ha): 100
pest or weed control at 16 g/ha (blackgrass; 16 g ai/ha, preemergence, scale 0 to 100 (0 no effect, 100 complete control), read-out: Blackgrass plant response rating): 0%
pest or weed control at 62 g/ha (blackgrass; 62 g ai/ha, preemergence, scale 0 (no effect) to 100 (complete control), read-out: Blackgrass plant response rating): 50%
pest or weed control at 125 g/ha (blackgrass; 125 g ai/ha, preemergence, scale 0 (no effect) to 100 (complete control), read-out: Blackgrass plant response rating): 90%
pest or weed control at 31 g/ha (blackgrass; Preemergence, 31 g ai/ha, scale 0 to 100, 0 no effect, 100 complete control, read-out: Plant response rating, Blackgrass): 40%
pest or weed control at 16 g/ha (velvetleaf; [5]): 100%
pest or weed control at 62 g/ha (velvetleaf; [6]): 100%
pest or weed control at 125 g/ha (velvetleaf; [7]): 100%
pest or weed control at 16 g/ha (yellow nutsedge; [5]): 0%
pest or weed control at 62 g/ha (yellow nutsedge; [6]): 15%
pest or weed control at 125 g/ha (yellow nutsedge; [7]): 55%
